Measured values reported in patent publication US20260317344A1, “EGFR INHIBITORS FOR TREATING DISEASE” (BLOSSOMHILL THERAPEUTICS, INC., priority 2023, published 2026).

How the values were obtained:
[1] = target: T1, pEGFR, A431 cells (wildtype EGFR) (Homo sapiens, UniProt P00533); assay: Cellular EGFR phosphorylation assay (LANCE Ultra TR-FRET) in A431 cells; assay type: cell-based; conditions: 4 hours at 37° C., 40 ng/mL EGF for the final 10 minutes, read-out: A431 pEGFR IC50
T1 construct: pEGFR (Tyr1068) TR-FRET
T1 sequence (P00533 25-1210): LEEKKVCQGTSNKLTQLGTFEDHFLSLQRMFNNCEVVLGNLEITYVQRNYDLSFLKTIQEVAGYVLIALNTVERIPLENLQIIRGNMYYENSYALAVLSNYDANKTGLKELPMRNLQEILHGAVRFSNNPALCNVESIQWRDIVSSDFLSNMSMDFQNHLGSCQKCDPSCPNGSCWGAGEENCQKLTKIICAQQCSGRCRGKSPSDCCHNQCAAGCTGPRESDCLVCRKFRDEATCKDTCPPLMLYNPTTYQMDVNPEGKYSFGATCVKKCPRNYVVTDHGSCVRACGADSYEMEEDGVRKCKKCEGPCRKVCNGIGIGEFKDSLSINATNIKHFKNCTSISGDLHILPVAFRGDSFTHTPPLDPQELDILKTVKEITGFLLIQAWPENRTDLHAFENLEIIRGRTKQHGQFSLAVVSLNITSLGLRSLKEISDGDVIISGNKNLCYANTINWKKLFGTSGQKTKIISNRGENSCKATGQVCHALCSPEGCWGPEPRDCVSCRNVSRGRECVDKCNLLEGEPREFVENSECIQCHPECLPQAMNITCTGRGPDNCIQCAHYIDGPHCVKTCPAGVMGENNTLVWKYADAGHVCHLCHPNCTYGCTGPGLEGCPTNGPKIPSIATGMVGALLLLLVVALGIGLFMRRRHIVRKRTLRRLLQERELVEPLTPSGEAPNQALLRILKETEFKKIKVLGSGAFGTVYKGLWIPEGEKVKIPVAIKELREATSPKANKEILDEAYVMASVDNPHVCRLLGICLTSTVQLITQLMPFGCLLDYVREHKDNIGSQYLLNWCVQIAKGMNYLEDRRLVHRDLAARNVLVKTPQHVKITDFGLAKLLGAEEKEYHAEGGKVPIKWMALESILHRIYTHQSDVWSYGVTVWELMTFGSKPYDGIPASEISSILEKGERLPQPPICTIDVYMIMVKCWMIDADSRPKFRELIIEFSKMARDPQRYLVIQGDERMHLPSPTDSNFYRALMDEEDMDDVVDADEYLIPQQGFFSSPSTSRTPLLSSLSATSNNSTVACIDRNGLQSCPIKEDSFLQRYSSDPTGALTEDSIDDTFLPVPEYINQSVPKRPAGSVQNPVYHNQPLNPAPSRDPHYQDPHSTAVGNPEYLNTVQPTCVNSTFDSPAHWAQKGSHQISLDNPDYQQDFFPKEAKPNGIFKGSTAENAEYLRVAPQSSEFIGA
Summary of the method: (§1)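 Phospho-EGFR (Tyr1068) measured by TR-FRET in lysates after 4 h compound exposure at 37° C (9 doses, 3-fold steps). A431 cells, seeded at 30 thousand per well, received 40 ng/mL EGF for the last 10 min; PC-9 and NCI-H1975 seeded at 50 thousand per well, unstimulated. IC50 values reported.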

EGFR (D746-750) = EGFR (D746-750) (Homo sapiens, UniProt P00533, DEL746-750); assay: HotSpot radiometric kinase assay, inhibition of EGFR 746-750 mutant; assay type: biochemical; conditions: 33P ATP, room temperature, 120 m
Summary of the method: (§2)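 Radiometric filter-binding format: ATP plus 33P-ATP ([…]) was added about 20 min after compound to kinase and substrate in HEPES pH 7.5 buffer with Mg2+, EGTA, Brij35, BSA, vanadate, DTT and 1% DMSO. After 120 min at room temperature, reactions were spotted on P81 paper and washed in phosphoric acid; IC50 values fitted.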

NCI-H1975 cells = assay: 5-Day CellTiter Glo (CTG) cell proliferation assay, NCI-H1975; assay type: cell-based; conditions: Homo sapiens; NCI-H1975 cells (L858R/T790M EGFR), 5-day CTG proliferation, 120 hours; read-out: H1975 IC50
Summary of the method: (§3)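 Proliferation of EGFR-driven NSCLC cells was scored as CellTiter-Glo 2.0 luminescence after a 5-day (120 h) incubation with compounds in 9 doses. IC50 values came from the dose-response curves.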

PC-9 cells = assay: 5-Day CellTiter Glo (CTG) cell proliferation assay, PC-9; assay type: cell-based; conditions: Homo sapiens; PC-9 cells (d746-750 EGFR), 5-day CTG proliferation, 120 hours; read-out: PC-9 IC50
Summary of the method: as §3

EGFR (L858R) = EGFR (L858R) (Homo sapiens, UniProt P00533, L858R); assay: HotSpot radiometric kinase assay, inhibition of EGFR L858R mutant; assay type: biochemical; conditions: 33P ATP, room temperature, 120 m
Experimental: (§4) Biochemical Assays for inhibition of wild-type and mutant EGFRs
(§5) Briefly, specific kinase/substrate pairs along with required cofactors were prepared in reaction buffer; 20 mM HEPES pH 7.5, 10 mM […], 1 mM EGTA, 0.02% Brij35, 0.02 mg/ml BSA, 0.1 mM Na3VO4, 2 mM DTT, 1% DMSO. Compounds were delivered into the reaction, followed ~20 minutes later by addition of a mixture of ATP (Sigma, St. Louis MO) and ^33P ATP (Perkin Elmer, Waltham MA) to a final concentration of […]. Reactions were carried out at room temperature for 120 m, followed by spotting of the reactions onto P81 ion exchange filter paper (Whatman Inc., Piscataway, NJ). Unbound phosphate was removed by extensive washing of filters in 0.75% phosphoric acid. […] IC50 values and curve fits were obtained using Prism (GraphPad Software).

[2] = target: T2, pEGFR, NCI-H1975 cells (L858R/T790M EGFR) (Homo sapiens, UniProt P00533, L858R/T790M); assay: Cellular EGFR phosphorylation assay (LANCE Ultra TR-FRET) in NCI-H1975 cells; assay type: cell-based; conditions: 4 hours at 37° C., read-out: H1975 pEGFR IC50
T2 construct: pEGFR (Tyr1068) TR-FRET
Summary of the method: as §1

EGFR (L858R/T790M/C797S) = EGFR (L858R/T790M/C797S) (Homo sapiens, UniProt P00533, C797S/L858R/T790M); assay: HotSpot radiometric kinase assay, inhibition of EGFR L858R/T790M/C797S mutant; assay type: biochemical; conditions: 33P ATP, room temperature, 120 m
Summary of the method: as §2

[3] = target: T3, pEGFR, PC-9 cells (d746-750 EGFR) (Homo sapiens, UniProt P00533, DEL746-750); assay: Cellular EGFR phosphorylation assay (LANCE Ultra TR-FRET) in PC-9 cells; assay type: cell-based; conditions: 4 hours at 37° C., read-out: PC-9 pEGFR IC50
T3 construct: pEGFR (Tyr1068) TR-FRET
Summary of the method: as §1

EGFR (L858R/T790M) = EGFR (L858R/T790M) (Homo sapiens, UniProt P00533, L858R/T790M); assay: HotSpot radiometric kinase assay, inhibition of EGFR L858R/T790M mutant; assay type: biochemical; conditions: 33P ATP, room temperature, 120 m
Experimental: as §4, §5

EGFR WT = EGFR WT (Homo sapiens, UniProt P00533); assay: HotSpot radiometric kinase assay, inhibition of EGFR WT; assay type: biochemical; conditions: 33P ATP, room temperature, 120 m
EGFR WT, sequence (P00533 25-1210): as above
Experimental: as §4, §5

EGFR (D746-750/C797S) = EGFR (D746-750/C797S) (Homo sapiens, UniProt P00533, C797S/DEL746-750); assay: HotSpot radiometric kinase assay, inhibition of EGFR 746-750/C797S mutant; assay type: biochemical; conditions: 33P ATP, room temperature, 120 m
EGFR (D746-750/C797S), sequence (P00533 with tags, fused parts or gaps DEL746-750/C797S): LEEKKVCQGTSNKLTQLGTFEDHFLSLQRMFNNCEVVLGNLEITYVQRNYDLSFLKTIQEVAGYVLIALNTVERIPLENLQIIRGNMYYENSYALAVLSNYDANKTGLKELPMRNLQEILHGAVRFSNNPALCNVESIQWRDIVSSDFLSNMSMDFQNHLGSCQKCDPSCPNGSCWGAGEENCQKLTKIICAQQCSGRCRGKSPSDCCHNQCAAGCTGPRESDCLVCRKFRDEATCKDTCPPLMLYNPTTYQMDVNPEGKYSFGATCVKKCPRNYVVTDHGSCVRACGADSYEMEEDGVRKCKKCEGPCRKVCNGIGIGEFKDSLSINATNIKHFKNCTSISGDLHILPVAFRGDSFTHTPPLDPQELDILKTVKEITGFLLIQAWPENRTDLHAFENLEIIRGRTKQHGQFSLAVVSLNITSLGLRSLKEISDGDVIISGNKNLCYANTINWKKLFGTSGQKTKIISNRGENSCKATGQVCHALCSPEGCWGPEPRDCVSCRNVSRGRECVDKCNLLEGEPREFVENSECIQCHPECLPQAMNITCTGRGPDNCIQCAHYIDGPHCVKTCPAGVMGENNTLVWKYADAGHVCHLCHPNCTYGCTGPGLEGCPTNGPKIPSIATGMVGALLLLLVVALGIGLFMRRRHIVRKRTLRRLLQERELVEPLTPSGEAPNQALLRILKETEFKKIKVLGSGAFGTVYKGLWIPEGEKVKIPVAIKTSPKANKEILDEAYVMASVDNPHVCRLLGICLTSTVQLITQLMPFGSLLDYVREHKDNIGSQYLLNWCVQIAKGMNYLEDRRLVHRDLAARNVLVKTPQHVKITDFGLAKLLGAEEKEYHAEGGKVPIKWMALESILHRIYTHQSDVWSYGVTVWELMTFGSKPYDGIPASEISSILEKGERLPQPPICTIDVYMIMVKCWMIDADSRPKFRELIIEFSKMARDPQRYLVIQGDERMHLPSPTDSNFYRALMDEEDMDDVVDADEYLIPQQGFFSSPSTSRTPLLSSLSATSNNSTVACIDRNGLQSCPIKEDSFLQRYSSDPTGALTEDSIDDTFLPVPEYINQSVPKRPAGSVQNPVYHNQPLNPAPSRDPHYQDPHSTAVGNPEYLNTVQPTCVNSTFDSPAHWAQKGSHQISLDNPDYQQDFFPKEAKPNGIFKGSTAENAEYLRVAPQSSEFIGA
Summary of the method: as §2

HCC827 cells = assay: 5-Day CellTiter Glo (CTG) cell proliferation assay, HCC827; assay type: cell-based; conditions: Homo sapiens; HCC827 cells (d746-750 EGFR), 5-day CTG proliferation, 120 hours; read-out: HCC827 IC50
Summary of the method: as §3

[4] = system: BaF3 cells with engineered EGFR L858R/T790M/C797S; assay: 3-Day CellTiter Glo (CTG) cell proliferation assay, BaF3 EGFR L858R/T790M/C797S; assay type: cell-based; conditions: Mus musculus, 3-day CTG proliferation, 72 hours
Summary of the method: (§6)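 Growth inhibition in transgene-bearing BaF3 lines was scored after three days of compound treatment by CellTiter-Glo 2.0 ATP luminescence, yielding IC50 values.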

EGFR (D770_N771insNPG) = EGFR (D770_N771insNPG) (Homo sapiens, UniProt P00533, INS770NPG); assay: HotSpot radiometric kinase assay, inhibition of EGFR (D770_N771insNPG) mutant; assay type: biochemical; conditions: 33P ATP, room temperature, 120 m
EGFR (D770_N771insNPG), sequence (P00533 with tags, fused parts or gaps INS770NPG limits assumed): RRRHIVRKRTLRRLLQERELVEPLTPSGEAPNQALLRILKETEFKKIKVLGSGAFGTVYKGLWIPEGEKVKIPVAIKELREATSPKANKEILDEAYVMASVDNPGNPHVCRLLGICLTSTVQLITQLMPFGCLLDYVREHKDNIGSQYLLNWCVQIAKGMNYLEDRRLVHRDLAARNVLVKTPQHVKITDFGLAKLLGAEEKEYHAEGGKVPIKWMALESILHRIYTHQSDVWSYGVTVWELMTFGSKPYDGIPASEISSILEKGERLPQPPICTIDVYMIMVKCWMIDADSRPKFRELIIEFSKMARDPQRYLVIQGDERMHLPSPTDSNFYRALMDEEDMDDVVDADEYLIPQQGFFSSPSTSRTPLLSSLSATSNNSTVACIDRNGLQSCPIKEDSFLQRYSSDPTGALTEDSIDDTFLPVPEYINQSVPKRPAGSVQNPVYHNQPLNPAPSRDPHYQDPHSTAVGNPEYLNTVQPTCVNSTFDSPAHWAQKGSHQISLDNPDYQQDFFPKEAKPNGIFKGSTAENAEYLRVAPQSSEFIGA
Summary of the method: as §2

[5] = system: BaF3 cells with engineered EGFR L858R/C797S; assay: 3-Day CellTiter Glo (CTG) cell proliferation assay, BaF3 EGFR L858R/C797S; assay type: cell-based; conditions: Mus musculus, 3-day CTG proliferation, 72 hours
Summary of the method: as §6

| Structure (SMILES) | IC50 [1] [nM] | IC50 (EGFR (D746-750)) [nM] | IC50 (NCI-H1975 cells) [nM] | IC50 (PC-9 cells) [nM] | IC50 (EGFR (L858R)) [nM] | IC50 [2] [nM] | IC50 (EGFR (L858R/T790M/C797S)) [nM] | IC50 [3] [nM] | IC50 (EGFR (L858R/T790M)) [nM] | IC50 (EGFR WT) [nM] | IC50 (EGFR (D746-750/C797S)) [nM] | IC50 (HCC827 cells) [nM] | IC50 [4] [nM] | IC50 (EGFR (D770_N771insNPG)) [nM] | IC50 [5] [nM] |
| --- | --- | --- | --- | --- | --- | --- | --- | --- | --- | --- | --- | --- | --- | --- | --- |
| Cc1nn(CCO)c2c1/C=C/c1n[nH]c3cnc(cc13)-c1c(C)nn(C)c1O[C@@H](C)CN(C(C)C)C2 [Ex. 21, 2-[(10S,17E)-6,8,10,16-tetramethyl-12-(propan-2-yl)-2,8,10,11,12,13-hexahydro-14H-5,3-(azenometheno)tripyrazolo[3,4-f:3′,4′-j:4″,3″-n][1,4]oxazacyclopentadecin-14-yl]ethan-1-ol] | 15.8 | 0.17 | 5.72 | 0.63 | 0.29 | 2.32 | 2.14 | 1.69 | 0.5 | 0.16 | 0.83 | 0.26 | 0.9 | 0.2 | 0.14 |
| CCOc1nn([C@@H](C)CO)c2c1/C=C/c1n[nH]c3cnc(cc13)-c1cnn(C)c1O[C@@H](C)CN(C)C2 [Ex. 19, (2S)-2-[(10S,17E)-16-ethoxy-8,10,12-trimethyl-2,8,10,11,12,13-hexahydro-14H-5,3-(azenometheno)tripyrazolo[3,4-f:3′,4′-j:4″,3″-n][1,4]oxazacyclopentadecin-14-yl]propan-1-ol] | 10 | 0.14 | 1.51 | 2.74 | 0.2 | 2.85 | 1.78 | 2.54 | 0.37 | 0.15 | 0.6 | 0.28 | 0.79 | 0.19 | 0.16 |
| Cc1nn(CCO)c2c1/C=C/c1n[nH]c3cnc(cc13)-c1c(C)nn(C)c1O[C@H](C)CN(C(C)C)C2 [Ex. 20, 2-[(10R,17E)-6,8,10,16-tetramethyl-12-(propan-2-yl)-2,8,10,11,12,13-hexahydro-14H-5,3-(azenometheno)tripyrazolo[3,4-f:3′,4′-j:4″,3″-n][1,4]oxazacyclopentadecin-14-yl]ethan-1-ol] | 61 | 0.27 | 96 | 25.2 | 0.55 | 8.57 | 2.57 | 11.8 | 0.81 | 0.71 | 0.98 | 2.89 | 5.29 | 1.48 | 3.05 |
| CCOc1nn(CCO)c2c1/C=C/c1n[nH]c3cnc(cc13)-c1cnn(C)c1O[C@H](C)CN(C(C)C)C2 [Ex. 12, 2-[(10R,17E)-16-ethoxy-8,10-dimethyl-12-(propan-2-yl)-2,8,10,11,12,13-hexahydro-14H-5,3-(azenometheno)tripyrazolo[3,4-f:3′,4′-j:4″,3″-n][1,4]oxazacyclopentadecin-14-yl]ethan-1-ol] | 40.7 | 0.58 | 22.2 | 13.8 | 0.62 | 3.64 | 0.44 | 6.38 | 0.43 | 0.39 | 0.31 | 2.25 | 1.36 | 0.42 | 0.78 |
